Source: patent US4349551A, “Penicillin derivatives and compositions containing them” (Beecham Group Limited, priority 1980, dated 1982)
In brackets after ≈: the same amount, converted by molar mass. Like-named read-outs stand apart in the source and are kept apart here.

Tests used:
P. rettgeri = test: MIC against P. rettgeri; assay type: cell-based; conditions: Providencia rettgeri, Agar
Source text: (§1) | MIC values (μg/ml) of the compounds of | Examples 1 and 2 against a number of | organisms important in human infections | Organism Agar Broth Agar Broth Agar

E. coli NCTC 10413 = test: MIC against E. coli NCTC 10413; assay type: cell-based; conditions: Escherichia coli
Source text: as §1

S. aureus Oxford = test: MIC against S. aureus Oxford; assay type: cell-based; conditions: Staphylococcus aureus, Agar
Source text: as §1

S. pyogenes ON 10 = test: MIC against S. pyogenes ON 10; assay type: cell-based; conditions: Streptococcus pyogenes, ON10, Agar
Source text: as §1

P. morganii = test: MIC against P. morganii; assay type: cell-based; conditions: Morganella morganii, Agar
Source text: as §1

S. faecalis I = test: MIC against S. faecalis I; assay type: cell-based; conditions: Enterococcus faecalis, Agar
Source text: as §1

E. cloacae N1 = test: MIC against E. cloacae N1; assay type: cell-based; conditions: Enterobacter cloacae, Agar
Source text: as §1

B. subtilis = test: MIC against B. subtilis; assay type: cell-based; conditions: Bacillus subtilis, Agar
Source text: as §1

S. marcescens US 32 = test: MIC against S. marcescens US 32; assay type: cell-based; conditions: Serratia marcescens, US32, Agar
Source text: as §1

S. aureus Russell = test: MIC against S. aureus Russell; assay type: cell-based; conditions: Staphylococcus aureus, Agar
Source text: as §1

[1] = tested on: Ps. aeruginosa NCTC 10662; test: MIC against Ps. aeruginosa NCTC 10662; assay type: cell-based; conditions: Agar
Source text: as §1

P. mirabilis 889 = test: MIC against P. mirabilis 889; assay type: cell-based; conditions: Proteus mirabilis, Agar
Source text: as §1

E. coli JT 425 = test: MIC against E. coli JT 425; assay type: cell-based; conditions: Escherichia coli, JT425, Agar
Source text: as §1

P. mirabilis C 977 = test: MIC against P. mirabilis C 977; assay type: cell-based; conditions: Proteus mirabilis, C977, Agar
Source text: as §1

E. coli JT 4 = test: MIC against E. coli JT 4; assay type: cell-based; conditions: Escherichia coli, JT4, Agar
Source text: as §1

K. aerogenes A = test: MIC against K. aerogenes A; assay type: cell-based; conditions: Klebsiella aerogenes
Source text: as §1

N. catarrhalis 1502 = test: MIC against N. catarrhalis 1502; assay type: cell-based; conditions: Agar
Source text: as §1

Ps. aeruginosa Dalgleish = test: MIC against Ps. aeruginosa Dalgleish; assay type: cell-based; conditions: Pseudomonas aeruginosa; Agar; Ps. aeruginosa Dalgleish 10^-2
Source text: as §1

[2] = reconversion of the formyl ester to the parent 6-hydroxymethyl penicillin; assay type: physicochemical
Procedure: The benzyl ester from the previous example (101 mg, 0.15 mmol) in THF (5 ml) was added to prehydrogenated 10% palladium on charcoal (100 mg) in THF (5 ml), water (1 ml). After shaking with hydrogen for 0.5 hours, the catalyst was filtered from the solution and washed well with N sodium bicarbonate solution (40 ml). The filtrate was washed with ethyl acetate (2×40 ml), acidified to pH 1.5 with 1 N-hydrochloric acid and extracted with ethyl acetate (3×40 ml). The combined extracts were washed with brine, dried and evaporated to give the title compound (46 mg, 51%), δ [(CD3)2 CO] 1.12, 1.35 (6H, 2s, 2 x CH3) 1.20 (3H, t, NCH2 CH3), 3.3-3.8 (4H, m, NCH2 and piperazine CH2), 3.8-4.3 (4H, m, CH2 O and piperazine CH2), 4.70 (1H, s, C3-proton), 5.57 (1H, s, C5 -proton), 5.72 (1H, d, J 6 Hz, α-proton) 7.45 (5H, m, aromatic protons), 8.25 (1H, s, CHO), 8.48 ( 1H, s, NH), 10.08 (1H, d, J 6 Hz, NH).

[3] = Ps. aeruginosa NCTC 10662 10^-2
[4] = Pseudomonas aeruginosa, NCTC10662, Ps. aeruginosa NCTC 10662, read-out: MIC

| MIC (P. rettgeri) | MIC (E. coli NCTC 10413; NCTC10413, Agar) | MIC (S. aureus Oxford) | MIC (S. pyogenes ON 10) | MIC (P. morganii) | MIC (S. faecalis I) | MIC (E. cloacae N1) | MIC (B. subtilis) | MIC (S. marcescens US 32) | MIC (S. aureus Russell) | MIC [1, 3] | MIC [1, 4] | MIC (P. mirabilis 889) | MIC (E. coli JT 425) | MIC (P. mirabilis C 977) | MIC (E. coli JT 4) | MIC (K. aerogenes A; Agar) | MIC (E. coli NCTC 10413; NCTC10413, Broth) | MIC (N. catarrhalis 1502) | MIC (Ps. aeruginosa Dalgleish) | Structure (SMILES) | also measured |
| --- | --- | --- | --- | --- | --- | --- | --- | --- | --- | --- | --- | --- | --- | --- | --- | --- | --- | --- | --- | --- | --- |
| 25 µg/mL | 10 µg/mL | > 100 µg/mL | > 100 µg/mL | 10 µg/mL | 100 µg/mL | 25 µg/mL | > 100 µg/mL | 50 µg/mL | > 100 µg/mL | > 100 µg/mL | > 100 µg/mL | 10 µg/mL | 100 µg/mL | 10 µg/mL | > 100 µg/mL | 1 µg/mL |  |  |  | CCN1CCN(C(=O)NC(C(=O)N[C@]2(CO)C(=O)N3[C@@H](C(=O)O)C(C)(C)S[C@@H]32)c2csc(N)n2)C(=O)C1=O (mixture of isomers) [Example 3, 6,α-Hydroxymethyl-6,β-[DL-α'-(4-ethyl-2,3-dioxopiperazine-1-carbonylamino)2-aminothiazole-4-acetamido]penicillanic acid] |  |
| 50 µg/mL (≈ 91.3 µM) | 25 µg/mL (≈ 45.7 µM) | > 100 µg/mL | 25 µg/mL (≈ 45.7 µM) | 25 µg/mL (≈ 45.7 µM) | > 100 µg/mL | 25 µg/mL (≈ 45.7 µM) | > 100 µg/mL | 50 µg/mL (≈ 91.3 µM) | > 100 µg/mL | > 100 µg/mL | > 100 µg/mL | 5 µg/mL (≈ 9.13 µM) | 50 µg/mL (≈ 91.3 µM) | 10 µg/mL (≈ 18.3 µM) | 100 µg/mL (≈ 183 µM) | 5 µg/mL (≈ 9.13 µM) | 10 µg/mL (≈ 18.3 µM) | 1 µg/mL (≈ 1.83 µM) | > 100 µg/mL | CCN1CCN(C(=O)N[C@@H](C(=O)N[C@]2(CO)C(=O)N3[C@@H](C(=O)O)C(C)(C)S[C@@H]32)c2ccccc2)C(=O)C1=O [Example 1, 6,α-Hydroxymethyl-6,β-[D,α'-(4-ethyl-2,3-dioxopiperazine-1-carbonylamino)-phenylacetamido]penicillanic acid] | MIC (K. aerogenes A; Broth): 100 µg/mL (≈ 183 µM) |
| 5 µg/mL (≈ 8.87 µM) | 5 µg/mL (≈ 8.87 µM) | > 100 µg/mL | 2.5 µg/mL (≈ 4.44 µM) | 5 µg/mL (≈ 8.87 µM) | > 100 µg/mL | 5 µg/mL (≈ 8.87 µM) | > 100 µg/mL | 5 µg/mL (≈ 8.87 µM) | > 100 µg/mL | > 100 µg/mL | > 100 µg/mL | 2.5 µg/mL (≈ 4.44 µM) | 50 µg/mL (≈ 88.7 µM) | 2.5 µg/mL (≈ 4.44 µM) | 100 µg/mL (≈ 177 µM) | 2.5 µg/mL (≈ 4.44 µM) | 5 µg/mL (≈ 8.87 µM) | 1 µg/mL (≈ 1.77 µM) | > 100 µg/mL | CCN1CCN(C(=O)N[C@@H](C(=O)N[C@]2(CO)C(=O)N3[C@@H](C(=O)O)C(C)(C)S[C@@H]32)c2ccc(O)cc2)C(=O)C1=O [Example 2, 6,α-Hydroxymethyl-6,β-[D,α'-(4-ethyl-2,3-dioxopiperazine-1-carbonylamino)-p-hydroxyphenylacetamido]penicillanic acid] | MIC (K. aerogenes A; Broth): 1 µg/mL (≈ 1.77 µM) |
|  |  |  |  |  |  |  |  |  |  |  |  |  |  |  |  |  |  |  |  | CCN1CCN(C(=O)N[C@@H](C(=O)N[C@]2(COC=O)C(=O)N3[C@@H](C(=O)O)C(C)(C)S[C@@H]32)c2ccccc2)C(=O)C1=O [Example 4, 6,α-Formyloxymethyl-6,β-[D,α'-(4-ethyl-2,3-dioxopiperazine-1-carbonylamino)-phenylacetamido]penicillanic acid] | reconversion to the 6-hydroxymethyl compound ([2]; in the solvents used for h.p.l.c.): complete and instantaneous; parent 6-hydroxymethyl penicillin formed on preparation of the sodium salt ([2]; precipitation from acetone using 2 N sodium ethyl hexanoate in methyl isobutyl ketone): an appreciable amount |
